Reference: ChEMBL document CHEMBL1135677 (J Med Chem, 2002)

What was measured:
MCF7 = assay: Antiproliferative activity assessed in the MCF-7 human mamma carcinoma using the BrdU; format: functional, cell-based
[1] = Antiproliferative activity assessed in the RENCA murine renal cell carcinoma using the BrdU; format: functional, cell-based, Mus musculus
LXFL 529 = assay: Antiproliferative activity assessed in the LXFL529 human lung carcinoma using the BrdU; format: functional, cell-based
Albumin [2] = molecular target: T1, Albumin (Homo sapiens, UniProt P02768); assay: Second order rate constant after incubation with human serum albumin (HSA) at pH 7.4 in the absence of myristic acid
Albumin [3] = molecular target: T1, Albumin; assay: Second order rate constant after incubation with human serum albumin (HSA) at pH 7.4 in the presence of 5 equiv of myristic acid

T1 sequence (P02768 whole entry): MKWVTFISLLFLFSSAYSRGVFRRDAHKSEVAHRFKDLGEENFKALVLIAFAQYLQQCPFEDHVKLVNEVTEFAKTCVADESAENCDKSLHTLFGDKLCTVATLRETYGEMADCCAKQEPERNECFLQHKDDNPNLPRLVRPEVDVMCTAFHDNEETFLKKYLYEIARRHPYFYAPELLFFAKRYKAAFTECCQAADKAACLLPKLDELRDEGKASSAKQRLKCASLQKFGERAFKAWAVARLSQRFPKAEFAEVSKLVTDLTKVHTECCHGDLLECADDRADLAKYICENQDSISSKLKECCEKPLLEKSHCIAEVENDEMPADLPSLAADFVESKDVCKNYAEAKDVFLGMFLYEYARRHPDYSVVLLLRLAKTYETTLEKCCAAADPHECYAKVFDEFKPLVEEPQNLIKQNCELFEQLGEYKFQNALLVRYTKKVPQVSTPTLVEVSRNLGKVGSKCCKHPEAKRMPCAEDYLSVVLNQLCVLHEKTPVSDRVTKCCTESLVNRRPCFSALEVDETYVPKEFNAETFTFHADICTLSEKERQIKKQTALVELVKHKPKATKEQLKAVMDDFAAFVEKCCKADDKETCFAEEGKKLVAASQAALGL

IC50 (MCF7; Homo sapiens, MCF7) | k2 (Albumin [2]) | k2 (Albumin [3]) | SMILES | IC50 (LXFL 529; Homo sapiens, LXFL 529) | further results
 | 25.17 M⁻¹ s⁻¹ | 19 M⁻¹ s⁻¹ | COc1cccc2c1C(=O)c1c(O)c3c(c(O)c1C2=O)C[C@@](O)(/C(CO)=N/NC(=O)CCCN1C(=O)C=CC1=O)C[C@]3(C)COC1C[C@H](N)[C@](C)(O)[C@H](C)O1.Cl (some centres undefined) |  | 
 | 10 M⁻¹ s⁻¹ | 16 M⁻¹ s⁻¹ | COc1cccc2c1C(=O)c1c(O)c3c(c(O)c1C2=O)C[C@@](O)(/C(CO)=N/NC(=O)CCCCCCCN1C(=O)C=CC1=O)C[C@]3(C)COC1C[C@H](N)[C@](C)(O)[C@H](C)O1.Cl (some centres undefined) |  | 
1000 nM |  |  | COc1cccc2c1C(=O)c1c(O)c3c(c(O)c1C2=O)C[C@@](O)(/C(CO)=N/NC(=O)CCCCCN1C(=O)C=CC1=O)C[C@]3(C)COC1C[C@H](N)[C@](C)(O)[C@H](C)O1 (stereo in doubt) | 400 nM | IC50 ([1]; Mus musculus): 900 nM
 | 17.33 M⁻¹ s⁻¹ | 37.5 M⁻¹ s⁻¹ | COc1cccc2c1C(=O)c1c(O)c3c(c(O)c1C2=O)C[C@@](O)(/C(CO)=N/NC(=O)CCCCCN1C(=O)C=CC1=O)C[C@]3(C)COC1C[C@H](N)[C@](C)(O)[C@H](C)O1.Cl (stereo in doubt; 3) |  | IC50 (MCF7; mcf7): 1100 nM; IC50 [1]: 1000 nM; IC50 (LXFL 529; lxfl 529): 500 nM

Continued, compound first:

SMILES | IC50 (MCF7; Homo sapiens, MCF7) | k2 (Albumin [2]) | k2 (Albumin [3]) | IC50 (LXFL 529; Homo sapiens, LXFL 529) | further results
COc1cccc2c1C(=O)c1c(O)c3c(c(O)c1C2=O)C[C@@](O)(/C(CO)=N/NC(=O)CCCCCN1C(=O)CCC1=O)C[C@]3(C)COC1C[C@H](N)[C@](C)(O)[C@H](C)O1 (some centres undefined) | 1100 nM |  |  | 500 nM | IC50 ([1]; Mus musculus): 700 nM
COc1cccc2c1C(=O)c1c(O)c3c(c(O)c1C2=O)C[C@@](O)(/C(CO)=N/NC(=O)CCN1C(=O)C=CC1=O)C[C@]3(C)COC1C[C@H](N)[C@](C)(O)[C@H](C)O1.Cl (some centres undefined) |  | 23.83 M⁻¹ s⁻¹ | 17.83 M⁻¹ s⁻¹ |  | 
COc1cccc2c1C(=O)c1c(O)c3c(c(O)c1C2=O)C[C@@](O)(C(=O)CO)C[C@@H]3O[C@H]1C[C@H](N)[C@H](O)[C@H](C)O1 [DOXORUBICIN] | 40 nM |  |  | 40 nM | 
